Measurements as given in patent US20240226106A1, “INHIBITORS OF PLASMA KALLIKREIN” (SHIRE HUMAN GENETIC THERAPIES, INC., priority 2021, published 2024).

Legend:
plasma kallikrein = target: T1, plasma kallikrein (Homo sapiens, UniProt P03952); assay: Neat human plasma assay (fluorogenic peptide), contact pathway-activated plasma; format: biochemical; settings: citrated human plasma, 10 nM human FXIIa activation, 100 μM PFR-AMC, room temperature; read-out: Human Plasma Assay: IC90
T1 construct: from tissue; host or cells: sodium citrate collected human plasma
T1 sequence (P03952 391-638 limits assumed): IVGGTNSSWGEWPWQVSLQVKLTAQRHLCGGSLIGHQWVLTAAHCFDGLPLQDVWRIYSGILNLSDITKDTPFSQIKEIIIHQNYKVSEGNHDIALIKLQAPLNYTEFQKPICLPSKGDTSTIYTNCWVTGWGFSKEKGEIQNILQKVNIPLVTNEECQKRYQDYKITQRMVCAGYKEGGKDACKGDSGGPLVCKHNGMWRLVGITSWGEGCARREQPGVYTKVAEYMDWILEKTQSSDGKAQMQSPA
T1 sequence (P03952 20-390 partner limits assumed): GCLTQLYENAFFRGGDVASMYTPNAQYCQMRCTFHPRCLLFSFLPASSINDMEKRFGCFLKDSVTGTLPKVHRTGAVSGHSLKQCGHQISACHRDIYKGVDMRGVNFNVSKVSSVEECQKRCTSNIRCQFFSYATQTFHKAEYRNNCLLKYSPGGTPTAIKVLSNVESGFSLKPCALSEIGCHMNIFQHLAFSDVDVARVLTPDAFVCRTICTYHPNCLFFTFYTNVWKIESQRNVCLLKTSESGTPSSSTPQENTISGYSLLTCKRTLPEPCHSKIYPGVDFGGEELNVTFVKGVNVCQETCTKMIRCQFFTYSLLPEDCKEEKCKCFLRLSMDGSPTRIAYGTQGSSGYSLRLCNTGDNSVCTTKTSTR
Experimental: To analyze inhibition of plasma kallikrein in an ex vivo setting, the potency of compounds was measure in contact pathway-activated plasma assays. In a fluorogenic peptide substrate assay, test compounds dissolved in DMSO were added to sodium citrate collected human or rat plasma in a 96-well microplate. Alternatively, citrated plasma was collected from rats administered the compounds orally or by IV. 10 nM of human FXIIa (Enzyme Research Laboratories) diluted in PKa buffer (20 mM Tris-HCl, pH 7.5, 150 mM NaCl, 1 mM EDTA, 0.100 PEG-8000, and 0.1% Triton X-100) was added to the plasma, followed by the 100 μM of the profluorescent, synthetic plasma kallikrein substrate PFR-AMC (also diluted in PKa buffer). Final plasma concentration in the reaction was […]. Fluorescence was immediately monitored by excitation/emission wavelengths of 360 nm/480 nm respectively over a period of 5 minutes in a microplate reader. The resulting linear increase in fluorescence emission (reflecting PKa proteolysis of PFR-AMC substrate) was fit to extract a proteolytic rate (fluorescent units over time), and this rate was subsequently plotted against compound inhibitor concentration. Resulting plots were fit to a standard 4-parameter IC50/C90 equation to determine min/max values, IC50/90, and slope. All experimental steps were performed at room temperature.

[1] = target: human activated kallikrein enzyme (Homo sapiens, UniProt P03952); assay: Inhibition of human activated plasma kallikrein, fluorogenic peptide substrate (PFR-AMC), 500 pM enzyme format; format: biochemical; settings: 500 pM activated kallikrein, 30 min preincubation, 10 min reaction, room temperature, read-out: Primary Dose Response Assay: Average EC50
Chain of human activated kallikrein enzyme (P03952 391-638 limits assumed): as the sequence (P03952 391-638 limits assumed) above
Chain of human activated kallikrein enzyme (P03952 20-390 partner limits assumed): as the sequence (P03952 20-390 partner limits assumed) above
In short: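 Enzyme at 500 pM with […] PFR-AMC in 20 mM Tris pH 7.5, 1 mM EDTA, 150 mM NaCl, 0.1% PEG-400, 0.1% Triton X-100. Inhibitor preincubated 30 min, then 10 min reaction at room temperature; AMC fluorescence read at 380 nm excitation/460 nm emission.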

Row | SMILES | IC90 (plasma kallikrein) [nM] | EC50 [1] [nM]
1 | CN1CCN(c2cc(C3CC3)cc3cc(CNc4ccnc(NC(=O)[C@H]5C[C@@H]5c5cccc(Cl)c5)c4)nn23)CC1 [Example 54, (1S,2S)-2-(3-chlorophenyl)-N-(4-(((5-cyclopropyl-7-(4-methylpiperazin-1-yl)pyrazolo[1,5-a]pyridin-2-yl)methyl)amino)pyridin-2-yl)cyclopropane-1-carboxamide] | 500 to 5000 | < 2.5
2 | O=C(Nc1cc(NCc2cn3nc(C4CC4)ccc3n2)ccn1)[C@H]1C[C@@H]1c1cccc(Cl)c1 [Example 46, (1S,2S)-2-(3-chlorophenyl)-N-(4-(((6-cyclopropylimidazo[1,2-b]pyridazin-2-yl)methyl)amino)pyridin-2-yl)cyclopropane-1-carboxamide] | 5000 to 65000 | < 2.5
3 | O=C(Nc1cc(NCc2cc3cc(C4CC4)cc(N4CCCC4=O)n3n2)ncn1)[C@H]1C[C@@H]1c1cccc(Cl)c1 [Example 52, (1S,2S)-2-(3-chlorophenyl)-N-(6-(((5-cyclopropyl-7-(2-oxopyrrolidin-1-yl)pyrazolo[1,5-a]pyridin-2-yl)methyl)amino)pyrimidin-4-yl)cyclopropane-1-carboxamide] | 500 to 5000 | 2.5 to 25
4 | Cc1ccnc([C@H]2C[C@@H]2C(=O)Nc2nncc(N[C@H](C)c3cc4cc(C5CC5)cc(N5CC(=O)N(C)C5=O)n4n3)n2)n1 (single isomer, unassigned) [Example 102] | < 500 | < 2.5
5 | Cc1ccnc([C@H]2C[C@@H]2C(=O)Nc2cc(N(C)Cc3cn4cc(C5CC5)cnc4n3)nc(C)n2)n1 [Example 90, (1S,2S)—N-(6-(((6-cyclopropylimidazo[1,2-a]pyrimidin-2-yl)methyl)(methyl)amino)-2-methylpyrimidin-4-yl)-2-(4-methylpyrimidin-2-yl)cyclopropane-1-carboxamide] | 5000 to 65000 | < 2.5
6 | Cc1ccnc([C@H]2C[C@@H]2C(=O)Nc2cc(OCc3cn4nc(C5CC5)cc(N5CC(=O)N(C)C5=O)c4n3)cnn2)n1 [Example 97, (1S,2S)—N-(5-((6-cyclopropyl-8-(3-methyl-2,4-dioxoimidazolidin-1-yl)imidazo[1,2-b]pyridazin-2-yl)methoxy)pyridazin-3-yl)-2-(4-methylpyrimidin-2-yl)cyclopropane-1-carboxamide] | < 500 | < 2.5
7 | N#Cc1ccc(Cl)cc1[C@H]1C[C@@H]1C(=O)Nc1cc(NCc2cn3cc(C4CC4)cnc3n2)ccn1 (racemic) [Example 22, rac-(1S*,2S*)-2-(5-chloro-2-cyanophenyl)-N-(4-(((6-cyclopropylimidazo[1,2-a]pyrimidin-2-yl)methyl)amino)pyridin-2-yl)cyclopropane-1-carboxamide] | 5000 to 65000 | < 2.5
8 | Cc1ccnc([C@H]2C[C@@H]2C(=O)Nc2cc(NCc3cc4cc(C5CC5)cc(N5CC(=O)N(C)C5=O)n4n3)ncn2)n1 [Example 101, (1S,2S)—N-(6-(((5-cyclopropyl-7-(3-methyl-2,4-dioxoimidazolidin-1-yl)pyrazolo[1,5-a]pyridin-2-yl)methyl)amino)pyrimidin-4-yl)-2-(4-methylpyrimidin-2-yl)cyclopropane-1-carboxamide] | < 500 | < 2.5
9 | O=C(Nc1cc(NCc2cc3cc(C4CC4)cc(N4CCOC4=O)n3n2)ncn1)[C@H]1C[C@@H]1c1cc(Cl)ccn1 (racemic) [Example 56, rac-(1S*,2S*)-2-(4-chloropyridin-2-yl)-N-(6-(((5-cyclopropyl-7-(2-oxooxazolidin-3-yl)pyrazolo[1,5-a]pyridin-2-yl)methyl)amino)pyrimidin-4-yl)cyclopropane-1-carboxamide] | 5000 to 65000 | < 2.5
10 | Cc1ccnc([C@H]2C[C@@H]2C(=O)Nc2nccc(NCc3cn4cc(C5CC5)cnc4n3)n2)n1 (racemic) [Example 77, rac-(1S*,2S*)—N-(4-(((6-cyclopropylimidazo[1,2-a]pyrimidin-2yl)methyl)amino)pyrimidin-2-yl)-2-(4-methylpyrimidin-2-yl)cyclopropane-1-carboxamide] | 500 to 5000 | < 2.5
